Read-outs that look alike come from different tables or passages of the source.
Legend:
HepG2 cells [1] = assay: cells; conditions: Homo sapiens; for Emax: HepG2, read-out: MMP assays efficacy (%) HepG2
rat primary hepatocytes [2] = system: rat primary hepatocytes
HepG2 cells [3] = conditions: cited from earlier work; for IC50: read-out: MMP assays IC50 (µM) qHTS-HepG2
rat primary hepatocytes [4] = assay: MMP assay in rat primary hepatocytes; conditions: for IC50: Rattus norvegicus, Hepatocyte
[5] = HepG2, read-out: MMP assays IC50 (µM) HepG2
[6] = read-out: MMP assays IC50 (µM) Rat Hepatocytes

Row | Structure (SMILES) | IC50 (HepG2 cells [1]; [5]) [µM] | Emax (HepG2 cells [1]) [%] | MMP assays efficacy (%) Rat Hepatocytes (rat primary hepatocytes [2]) | MMP assays efficacy (%) qHTS-HepG2 (HepG2 cells [3]) [%] | IC50 (HepG2 cells [3]) [µM] | IC50 (rat primary hepatocytes [4]; [6]) [µM] | MMP assays IC50 (µM) Rat Hepatocytes (rat primary hepatocytes [4]) | IC50 (HepG2 cells [1]; HepG2, read-out: IC50 in HepG2 cells (MMP, tier-one retest)) [µM] | IC50 (rat primary hepatocytes [4]; 1 h, read-out: IC50 in rat primary hepatocytes (MMP, tier-one retest)) [µM]
1 | Nc1ccccc1N [1,2-Phenylenediamine] | 2.51 | 87 | -41±14% | -96±16 | 3.9 ± 3.61 | 17.9 ± 6.5 | – | – | –
2 | O=C(CC(=O)c1ccccc1)c1ccccc1 [1,3-Diphenyl-1,3-propanedione] | 35.5 | 121 | -84±43% | -75±15 | 11.7 ± 1.35 | 39.8 ± 14.2 | – | – | –
3 | Nc1ccc(N)cc1 [1,4-Benzenediamine] | 2.18 | 71 | inactive | -85±6 | 3.28 ± 0.42 | – | inactive | – | –
4 | Nc1ccc(N)c2ccccc12 [1,4-Naphthalenediamine] | 2 | 109 | -44±17% | -88±2 | 0.2 ± 0.08 | 22.7 ± 8.75 | – | – | –
5 | Nc1cccc2c(N)cccc12 [1,5-Naphthalenediamine] | 3.16 | 101 | inactive | -76±19 | 17 ± 19.6 | – | inactive | – | –
6 | Brc1ccc(Oc2ccc(Br)cc2Br)c(Br)c1 [2,2'4,4'-Tetrabromodiphenyl ether] | 39.8 | 104 | -42±10% | -119±10 | 22.6 ± 5.18 | 25.6 ± 34.7 | – | – | –
7 | Brc1ccc(Oc2cc(Br)c(Br)cc2Br)c(Br)c1 [2,2',4,4',5-Pentabromodiphenyl ether] | 4.47 | 88 | -43±30% | -109±22 | 8 ± 3.19 | 9.11 ± 4.93 | – | – | –
8 | Clc1ccccc1-c1ccccc1Cl [2,2'-Dichlorobiphenyl] | 63.1 | 76 | inactive | -71±13 | 31.1 ± 12.3 | – | inactive | – | –
9 | COc1ccc(C(=O)c2ccccc2O)c(O)c1 [2,2'-Dihydroxy-4-methoxybenzophenone] | 5.24 | 103 | -47±18% | -98±6 | 9.89 ± 1.04 | 11.1 ± 5.21 | – | – | –
10 | Oc1cc(Cl)c(Cl)c(Cl)c1Cl [2,3,4,5-Tetrachlorophenol] | 7.94 | 121 | -76±25% | -99±11 | 4.93 ± 2.04 | 11.6 ± 5.42 | – | – | –
11 | Oc1ccc(Cl)c(Cl)c1Cl [2,3,4-Trichlorophenol] | 7.94 | 101 | -59±36% | -101±8 | 5.23 ± 1.52 | 41.8 ± 14.4 | – | – | –
12 | Oc1c(Cl)c(Cl)cc(Cl)c1Cl [2,3,5,6-Tetrachlorophenol] | 8.91 | 92 | -77±36% | -94±3 | 6.42 ± 2.38 | 9.2 ± 2.96 | – | – | –
13 | Oc1cc(Cl)cc(Cl)c1Cl [2,3,5-Trichlorophenol] | 6.31 | 114 | -77±25% | -99±7 | 5.8 ± 1.05 | 27.7 ± 10.4 | – | – | –
14 | CC(C)(C)c1cc(O)c(C(C)(C)C)cc1O [2,5-Di-tert-butylbenzene-1,4-diol] | 7.94 | 98 | -73±5% | -107±12 | 7.41 ± 1.27 | 39.1 ± 15.5 | – | – | –
15 | CCC(C)c1cccc(C(C)CC)c1O (centres unmarked) [2,6-Di(butan-2-yl)phenol] | 15.8 | 110 | inactive | -85±30 | 13.7 ± 3.19 | – | inactive | – | –
16 | Cc1c(N)cccc1N [2,6-Toluenediamine] | 28.2 | 85 | -44±11% | -72±11 | 15.7 ± 10 | 32.2 ± 7.36 | – | – | –
17 | CC(C)(C)c1cc([N+](=O)[O-])cc(C(C)(C)C)c1O [2,6-di-tert-butyl-4-nitrophenol] | – | 108 | -109±11% | -96±13 | 0.17 ± 0.05 | – | – | 0.11 | 0.29
18 | CCC(C)c1ccccc1O (centres unmarked) [2-(Butan-2-yl)phenol] | 25.1 | 32 | inactive | -82±8 | 49.5 ± 9.45 | – | inactive | – | –
19 | CC(C)CC(=O)C1C(=O)c2ccccc2C1=O [2-Isovaleryl-1,3-indanedione] | 56.2 | 108 | -107±61% | -99±5 | 5.24 ± 0.9 | 22.2 ± 11.1 | – | – | –
20 | Cc1cc(C(C)(C)c2ccc(O)c(C)c2)ccc1O [3,3'-Dimethylbisphenol A] | 11.2 | 110 | -56±26% | -118±22 | 8.88 ± 3.37 | 34.4 ± 4.73 | – | – | –
21 | Oc1cc(Cl)c(Cl)c(Cl)c1 [3,4,5-Trichlorophenol] | 5.01 | 96 | -100±4% | – | 3.8 ± 1.74 | 33.8 ± 17.2 | – | – | –
22 | Oc1ccc(Cl)c(Cl)c1 [3,4-Dichlorophenol] | 15.8 | 114 | -45±32% | -104±7 | 9.18 ± 2.63 | 53.9 ± 13 | – | – | –
23 | Oc1cc(Cl)cc(Cl)c1 [3,5-Dichlorophenol] | 11.2 | 113 | -81±35% | -96±8 | 9.79 | 46.9 ± 8.44 | – | – | –
24 | O=C(Nc1ccc(Cl)c(Cl)c1)c1cc(Cl)cc(Cl)c1O [3,5-Dichlorosalicyl-3,4-dichloroanilide] | 0.11 | 93 | -67±6% | -105±6 | 0.22 ± 0.09 | 0.38 ± 0.03 | – | – | –
25 | Cc1cccc(N)c1N [3-Methylbenzene-1,2-diamine] | 28.2 | 90 | -56±11% | -67±14 | 21.7 ± 3.65 | 36.6 ± 11.8 | – | – | –
26 | Nc1ccc(/N=N/c2ccc(N)cc2)cc1 [4,4'-Diaminoazobenzene] | 5.62 | 87 | -50±40% | -86±5 | 10.5 ± 3.59 | 26.6 ± 12.5 | – | – | –
27 | O=S(=O)(c1ccc(Cl)cc1)c1ccc(Cl)cc1 [4,4'-Dichlorodiphenyl sulfone] | 35.5 | 96 | -72±26% | -99±22 | 21.3 ± 6.06 | 29.9 ± 2.43 | – | – | –

From publication PMC6112376, “Comprehensive Analyses and Prioritization of Tox21 10K Chemicals Affecting Mitochondrial Function by in-Depth Mechanistic Studies” (Environmental Health Perspectives, 2018)
